Columns and labels:
human CYP11B2 = biological target: T1, human CYP11B2 (Homo sapiens, UniProt P19099); assay: In vitro activity assay of monoclonal cells overexpressing human CYP11B2; format: cell-based; details: G402 cells overexpressing human CYP11B2; 1 µM 11-deoxycorticosterone, 16 hours; aldosterone by LC-MS/MS
T1 construct: expressed in transfected cells; host or cells: human renal leiomyoma G402 cells (monoclonal)
T1 sequence (P19099 25-503): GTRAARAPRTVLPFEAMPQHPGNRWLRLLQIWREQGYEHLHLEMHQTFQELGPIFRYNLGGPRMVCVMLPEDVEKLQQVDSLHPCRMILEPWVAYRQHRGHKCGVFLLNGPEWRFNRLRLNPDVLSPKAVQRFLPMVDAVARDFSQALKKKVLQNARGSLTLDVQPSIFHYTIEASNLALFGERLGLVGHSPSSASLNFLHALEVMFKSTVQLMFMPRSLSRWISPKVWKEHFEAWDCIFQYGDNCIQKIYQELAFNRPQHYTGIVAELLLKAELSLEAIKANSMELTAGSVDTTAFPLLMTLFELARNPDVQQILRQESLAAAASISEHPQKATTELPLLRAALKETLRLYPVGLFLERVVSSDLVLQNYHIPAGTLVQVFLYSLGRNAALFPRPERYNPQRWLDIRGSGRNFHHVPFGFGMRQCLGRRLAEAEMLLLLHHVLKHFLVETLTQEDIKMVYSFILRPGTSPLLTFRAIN
Procedure: The human renal leiomyoma G402 cell line overexpressing human CYP11B2 was selected to serve as a compound activity screening system. Table 1: Cell and reagent information
2) Compound details: The test compound was prepared as a 10 µM working concentration using DMSO. 3) Experimental procedure
Day 1: Cells were digested, and human renal leiomyoma G402 cells overexpressing human CYP11B2 were resuspended to 1×10^5 cells/mL, with 100 µL seeded into a 96-well plate.
(§1) Day 3: The cell supernatant was collected and added to 200 µL of a methanol solution containing internal standards (internal standards: 35 ng/mL ketoprofen or 7.5 ng/mL carbamazepine or 5 ng/mL diphenhydramine or 10 ng/mL tolbutamide). The mixture was vortexed and centrifuged (4000×g, 4°C, 5 minutes). Then, 100 µL of the supernatant was taken and mixed with 100 µL of pure water.
Ratio = Aldosterone peak area/Internal standard peak area [formula] Control activity% = (Ratiotestcompound/RatioDMSO) × 100% [formula]
(§2) "Ratio test compound" represents the Ratio values at different concentrations of the test compound.
(§3) "Ratio DMSO" represents the Ratio value without the addition of the test compound. • X = Log (compound concentration) • Y = Control activity%
The IC50 of the test compound was determined by fitting to a nonlinear regression equation using XLfit 5.5.0. Table 3: Results for in vitro activity assay of monoclonal cells overexpressing human CYP11B2

human CYP11B1 = biological target: T2, human CYP11B1 (Homo sapiens, UniProt P15538); assay: In vitro activity assay of monoclonal cells overexpressing human CYP11B1; format: cell-based; details: G402 cells overexpressing human CYP11B1; 1 µM 11-deoxycortisol, 16 hours; cortisol by LC-MS/MS
T2 construct: expressed in transfected cells; host or cells: human renal leiomyoma G402 cells (monoclonal)
T2 sequence (P15538 25-503): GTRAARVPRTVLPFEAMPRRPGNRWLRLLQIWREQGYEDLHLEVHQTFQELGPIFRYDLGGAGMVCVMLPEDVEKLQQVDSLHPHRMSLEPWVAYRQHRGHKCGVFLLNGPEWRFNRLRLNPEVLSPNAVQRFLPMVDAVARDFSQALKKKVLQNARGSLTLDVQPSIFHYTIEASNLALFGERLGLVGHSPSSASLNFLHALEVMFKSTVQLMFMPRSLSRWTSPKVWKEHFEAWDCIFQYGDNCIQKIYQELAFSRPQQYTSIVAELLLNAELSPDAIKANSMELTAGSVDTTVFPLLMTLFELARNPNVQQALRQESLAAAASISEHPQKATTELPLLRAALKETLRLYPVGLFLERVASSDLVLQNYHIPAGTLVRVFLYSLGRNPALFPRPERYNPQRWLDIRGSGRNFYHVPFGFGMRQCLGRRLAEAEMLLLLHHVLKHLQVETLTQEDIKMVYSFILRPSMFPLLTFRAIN
Procedure: The human renal leiomyoma G402 cell line overexpressing human CYP11B1 was selected to serve as a compound selectivity screening system.
Day 1: Cells were digested, and human renal leiomyoma G402 cells overexpressing CYP11B1 were resuspended to 1×10^5 cells/mL, with 100 µL seeded into a 96-well plate.
as §1
Ratio = Cortisol peak area/Internal standard peak area [formula] Control activity% = (Ratiotestcompound/RatioDMSO) × 100% [formula]
as §2, §3
The IC50 of the test compound was determined by fitting to a nonlinear regression equation using XLfit 5.5.0. Table 4: Results for in vitro activity assay of monoclonal cells overexpressing human CYP11B1

MDR1-MDCKII cells = assay: Permeability test (MDR1-MDCKII monolayer, bidirectional transport); format: in vitro ADME; details: 2 µM; for Efflux ratio (ER): ER = Papp (BA)/ Papp (AB), 150 min; for Apparent permeability coefficient (Papp (AB), 10^-6 cm/s): pH 7.40, 2.5 hours, A to B
Procedure: Experimental objective: The permeability and efflux ratio of the compound of the present disclosure were determined using the MDR1-MDCKII monolayer cell model to assess its membrane permeability and potential for P-gp-mediated efflux transport.
Experimental protocol: MDR1-MDCKII cells (obtained from the Netherlands Cancer Institute) were seeded in 96-well plates (obtained from Corning) at a cell density of 3.33 × 10^5 cells/mL and cultured for 4 to 7 days to form confluent cell monolayers. Hank's balanced salt solution containing 10 mM HEPES (pH 7.40) was used as the transport buffer. The test compound was evaluated for bidirectional transport at a concentration of 2 µM, with the DMSO concentration in the incubation system maintained below 1%. After adding the samples, the cell plate was incubated at 37±1°C, 5% CO2, and saturated humidity for 2.5 hours. All samples were quantitatively analyzed using the LC-MS/MS method. The apparent permeability coefficient (Papp, cm/s) and efflux ratio (ER) were calculated using the following formula. Apparent permeability coefficient (Papp, cm/s) was calculated using the following formula: Papp = (dCr/dt) x Vr / (A x C0). Herein, dCr/dt represents the cumulative concentration of the compound at the receiving end per unit time (µM/s); Vr is the volume of the solution at the receiving end (with solution volumes at the apical and basolateral ends being 0.075 mL and 0.250 mL, respectively); A is the relative surface area of the cell monolayer (0.143 cm^2); C0 is the initial concentration of the test substance at the dosing end (µM) or the peak area ratio of the reference substance. The efflux ratio was calculated using the following formula: ER = Papp (BA)/ Papp (AB). Table 7: Permeability test results of compounds

[1] = test system: patients with resistant hypertension; details: cited from earlier work
[2] = 2 mg dose, patients with resistant hypertension

Row | IC50 (human CYP11B2) [nM] | Structure (SMILES) | IC50 (human CYP11B1) [µM] | Efflux ratio (ER) (MDR1-MDCKII cells) | Apparent permeability coefficient (Papp (AB), 10^-6 cm/s) (MDR1-MDCKII cells) | further results
1 | – | CCC(=O)N[C@@H]1CCCc2c(-c3ccc4c(c3)CCC(=O)N4C)cncc21 [Baxdrostat] | – | – | – | office systolic and diastolic blood pressure [1, 2]: demonstrated efficacy; safety and tolerability [1, 2]: favorable safety and tolerability profiles; aldosterone secretion levels ([1]; clinical studies): dose-dependent reduction; blood pressure ([1]; clinical studies): dose-dependent reduction; blood pressure reduction ([1]; phase 2 trials): significant blood pressure reduction; cortisol levels ([1]; phase 2 trials): no impact on cortisol levels; elevated blood potassium ([1]; phase 2 trials): rare occurrence of elevated blood potassium; steroid precursor accumulation ([1]; phase 2 trials): absence of steroid precursor accumulation
2 | 31.8 | Cc1noc(C)c1C(=O)NC1CCCc2c(-c3ccc4c(ccc(=O)n4C)c3)cncc21 (single isomer, unassigned) [Compound 015] | – | – | – | –
3 | 7.02 | CCC(=O)NC1CCc2c(-c3ccc4c(ccc(=O)n4C)c3)cncc21 (single isomer, unassigned) [Compound 048] | 2.49 | – | – | –
4 | 65.5 | CCC(=O)NC1CCCc2c(-c3ccc4c(c3)C3CC3C(=O)N4C)cncc21 (single isomer, unassigned) [Compound 025] | – | – | – | –
5 | 63.6 | CCS(=O)(=O)N1CC(Oc2cncc(-c3ccc4c(c3)OCC(=O)N4C)c2)C1 [Compound 016] | – | – | – | –
6 | 41 | CCC(=O)NC1CCCc2c(-c3ccc4c(ccc(=O)n4C)c3Cl)cncc21 (single isomer, unassigned) [Compound 042] | – | – | – | –
7 | 48.7 | CCC(=O)NC1CCN(C2CCCc3c(-c4ccc5c(ccc(=O)n5C)c4)cncc32)CC1 (single isomer, unassigned) [Compound 030] | 2.18 | – | – | –
8 | 20.6 | Cn1c(=O)ccc2cc(-c3cncc4c3CCC[C@H]4NC(=O)c3ncccc3Cl)ccc21 (single isomer, unassigned) [Compound 014] | – | – | – | –
9 | 42.2 | CCC(=O)NC1CCCc2c(-c3nc4ccc(=O)n(C)c4s3)cncc21 (single isomer, unassigned) [Compound 041] | 6.75 | – | – | –

Row | Structure (SMILES) | IC50 (human CYP11B2) [nM] | IC50 (human CYP11B1) [µM] | Efflux ratio (ER) (MDR1-MDCKII cells) | Apparent permeability coefficient (Papp (AB), 10^-6 cm/s) (MDR1-MDCKII cells) | further results
10 | CCC(=O)NC1CCCc2c(-c3ccc4c(c3)OCC(=O)N4C)cncc21 (single isomer, unassigned) [Compound 011] | 59.7 | 6.91 | 0.89 | 24.3 10^-6 cm/s | –
11 | CCC(=O)NC1CCOc2c(-c3cc4ccc(=O)n(C)c4s3)cncc21 (single isomer, unassigned) [Compound 045] | 42.7 | 34.9 | 1.30 | 16.7 10^-6 cm/s | –
12 | CCC(=NOC)NC1CCCc2c(-c3ccc4c(c3)CCC(=O)N4C)cncc21 (single isomer, unassigned) [Compound 005] | 19.5 | 1.42 | 0.70 | 23.1 10^-6 cm/s | –
13 | CCC(=O)NC1CCOc2c(-c3cc4c(s3)N(C)C(=O)CC4)cncc21 (single isomer, unassigned) [Compound 046] | 13.3 | 1.57 | 1.17 | 18.0 10^-6 cm/s | –
14 | CCC(=O)NC1CCCc2c(-c3ccc4c(c3)OCC(=O)N4C)cncc21 (single isomer, unassigned) [Compound 010] | 71.5 | 6.88 | – | – | –
15 | CCC(=O)NC1CCCc2c(-c3cc(F)c4c(c3)OCC(=O)N4C)cncc21 (single isomer, unassigned) [Compound 031] | 22.6 | 4.74 | 0.89 | 20.0 10^-6 cm/s | –
16 | CCC(=O)NC1CCCc2c(-c3cc4c(cc3F)N(C)C(=O)CO4)cncc21 (single isomer, unassigned) [Compound 032] | 30.1 | 5.65 | 0.86 | 22.6 10^-6 cm/s | –

Reference: patent EP4711361A1, “NITROGEN-CONTAINING HETEROCYCLIC COMPOUND AND USE THEREOF” (Jiangsu Deyuan Pharmaceutical Co.,Ltd., priority 2023, dated 2024)
